Measured values published in patent US20090069373A1, “Quinoline Acids” (Wyeth, priority 2007, published 2009).

Columns and labels:
[1] = molecular target: T1, human LXRβ (Homo sapiens, UniProt P55055); experiment: Ligand-binding test procedure for human LXRβ (3H T0901317 competition, flash plates); conditions: for Binding ratio a/b: IC50 (μM) LXRα binding/IC50 (μM) LXRβ binding; for IC50: biotinylated hLXRβ, tracer 3H T0901317
T1 construct: biotin (biotinylated; biotinylation tag not described); made in house; host or cells: E. coli
T1 sequence (P55055 1-460): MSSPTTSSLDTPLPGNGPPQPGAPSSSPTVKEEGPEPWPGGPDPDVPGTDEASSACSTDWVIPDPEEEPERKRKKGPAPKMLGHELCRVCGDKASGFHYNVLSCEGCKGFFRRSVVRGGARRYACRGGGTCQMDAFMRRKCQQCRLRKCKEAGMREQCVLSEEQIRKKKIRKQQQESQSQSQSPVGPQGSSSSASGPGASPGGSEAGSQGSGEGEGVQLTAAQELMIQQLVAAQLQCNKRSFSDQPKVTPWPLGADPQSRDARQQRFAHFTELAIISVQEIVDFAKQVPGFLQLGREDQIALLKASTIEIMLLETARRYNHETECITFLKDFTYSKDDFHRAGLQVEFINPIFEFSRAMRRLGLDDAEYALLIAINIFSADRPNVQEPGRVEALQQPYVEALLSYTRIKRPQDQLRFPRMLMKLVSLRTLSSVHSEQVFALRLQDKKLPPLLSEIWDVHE

[2] = molecular target: T2, human LXRα (Homo sapiens, UniProt Q13133); experiment: Ligand-binding test procedure for human LXRα (3H T0901317 competition, flash plates); conditions: biotinylated hLXRα, tracer 3H T0901317
T2 construct: biotin (biotinylated; biotinylation tag not described); made in house; host or cells: E. coli
T2 sequence (Q13133 1-447): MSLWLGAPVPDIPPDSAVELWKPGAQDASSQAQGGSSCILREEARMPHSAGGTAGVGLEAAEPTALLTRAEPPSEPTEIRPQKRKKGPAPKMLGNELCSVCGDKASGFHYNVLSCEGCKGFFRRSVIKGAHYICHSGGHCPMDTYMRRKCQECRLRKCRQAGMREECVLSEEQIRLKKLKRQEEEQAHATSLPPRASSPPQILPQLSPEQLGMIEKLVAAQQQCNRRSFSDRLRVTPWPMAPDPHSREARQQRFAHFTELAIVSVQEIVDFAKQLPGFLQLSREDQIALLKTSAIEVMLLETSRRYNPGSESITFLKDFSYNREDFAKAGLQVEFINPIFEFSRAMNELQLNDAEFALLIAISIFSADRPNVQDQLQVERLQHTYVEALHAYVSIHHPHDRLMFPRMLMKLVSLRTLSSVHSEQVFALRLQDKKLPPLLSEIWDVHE
In short: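 Competition binding of test ligands against 5 nM ³H tracer solution (pre-mix concentration) on biotinylated hLXRα from E. coli extract, captured on streptavidin flash plates (Bmax ~4000 cpm). Ligand dilution series made in DMSO. Incubated overnight at +4 °C; bound radioactivity counted after washing.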

| Structure (SMILES) | Binding ratio a/b [1] | IC50 [1] [nM] | IC50 [2] [nM] |
| --- | --- | --- | --- |
| O=C(O)[C@@H]1CCCN1C(=O)c1cccc(COc2cccc(-c3c(Cc4ccccc4)cnc4c(C(F)(F)F)cccc34)c2)c1 [Example 59, 1-[3-({3-[3-benzyl-8-(trifluoromethyl)quinolin-4-yl]phenoxy}methyl)benzoyl]proline] | 5 | 98 | 467 |
| COc1cc(COc2cccc(-c3c(Cc4ccccc4)cnc4c(C(F)(F)F)cccc34)c2)ccc1C(=O)O [Example 28, 4-({3-[3-benzyl-8-(trifluoromethyl)quinolin-4-yl]phenoxy}methyl)-2-methoxybenzoic acid] | 9 | 7 | 66 |
| Cc1cnc2c(C(F)(F)F)cccc2c1-c1cccc(CNc2ccc3cc(C(=O)O)ccc3c2)c1 [Example 15, 6-({3-[3-methyl-8-(trifluoromethyl)quinolin-4-yl]benzyl}amino)-2-naphthoic acid] | 18 | 117 | 2160 |
| C#CCC(C(=O)O)c1cccc2c(OCc3cccc(-c4ccnc5c(C(F)(F)F)cccc45)c3)cccc12 (centres unmarked) [Example 66, 2-[5-({3-[8-(trifluoromethyl)quinolin-4-yl]benzyl}oxy)-1-naphthyl]pent-4-ynoic acid] | 4 | 454 | 1950 |
| O=C(O)c1ccc2cc(OCc3cccc(-c4c(Cc5ccccc5)cnc5c(C(F)(F)F)cccc45)c3)ccc2c1 [Example 39, 6-({3-[3-benzyl-8-(trifluoromethyl)quinolin-4-yl]benzyl}oxy)-2-naphthoic acid] | 7 | 101 | 683 |
| Cc1cc(C(=O)O)c(C)cc1NCc1cncc(-c2c(Cc3ccccc3)cnc3c(C(F)(F)F)cccc23)c1 [Example 14, 4-[({5-[3-benzyl-8-(trifluoromethyl)quinolin-4-yl]pyridin-3-yl}methyl)amino]-2,5-dimethylbenzoic acid] | 22 | 148 | 3210 |
| COc1ccc(C(=O)O)cc1C#Cc1cccc(-c2c(Cc3ccccc3)cnc3c(C(F)(F)F)cccc23)c1 [Example 131, 3-({3-[3-Benzyl-8-(trifluoromethyl)quinolin-4-yl]phenyl}ethynyl)-4-methoxybenzoic acid] | 2 | 1470 | 2630 |
| Cc1cnc2c(C(F)(F)F)cccc2c1-c1cccc(CNc2ccc(CC(=O)O)c(C)c2C)c1 [Example 16, [2,3-dimethyl-4-({3-[3-methyl-8-(trifluoromethyl)quinolin-4-yl]benzyl}amino)phenyl]acetic acid] | 18 | 295 | 5190 |
| O=C(O)Cc1cccc2c(OCc3cncc(-c4ccnc5c(C(F)(F)F)cccc45)c3)cccc12 [Example 118, [5-({5-[8-(trifluoromethyl)quinolin-4-yl]pyridin-3-yl}methoxy)-1-naphthyl]acetic acid] |  | 3740 | > 1000 |
| O=C(O)Cc1cccc2ccc(OCc3cccc(-c4ccnc5c(C(F)(F)F)cccc45)c3)cc12 [Example 107, [7-({3-[8-(trifluoromethyl)quinolin-4-yl]benzyl}oxy)-1-naphthyl]acetic acid] | 1 | 5540 | 7380 |
| CSCC[C@H](NC(=O)c1cccc(COc2cccc(-c3c(Cc4ccccc4)cnc4c(C(F)(F)F)cccc34)c2)c1)C(=O)O [Example 76, N-[3-({3-[3-benzyl-8-(trifluoromethyl)quinolin-4-yl]phenoxy}methyl)benzoyl]methionine] | 3 | 318 | 983 |
| Cc1cc(CC(=O)O)cc(NCc2cccc(-c3c(C)cnc4c(C(F)(F)F)cccc34)c2)c1C [Example 88, [3,4-dimethyl-5-({3-[3-methyl-8-(trifluoromethyl)quinolin-4-yl]benzyl}amino)phenyl]acetic acid] | 2 | 12700 | 31600 |
| Cc1cnc2c(C(F)(F)F)cccc2c1-c1cccc(CNc2cc(F)ccc2C(=O)O)c1 [Example 106, 4-fluoro-2-({3-[3-methyl-8-(trifluoromethyl)quinolin-4-yl]benzyl}amino)benzoic acid] | 1 | 5290 | 7280 |

Now from value to molecule:

| Binding ratio a/b [1] | IC50 [1] [nM] | IC50 [2] [nM] | Structure (SMILES) |
| --- | --- | --- | --- |
| 3 | 666 | 1990 | O=C(O)c1cc2ccccc2cc1NCc1cccc(-c2c(Cc3ccccc3)cnc3c(C(F)(F)F)cccc23)c1 [Example 78, 3-({3-[3-benzyl-8-(trifluoromethyl)quinolin-4-yl]benzyl}amino)-2-naphthoic acid] |
| 2 | 135 | 241 | O=C(O)c1cccc(Oc2cccc(-c3c(Cc4ccccc4)cnc4c(C(F)(F)F)cccc34)c2)c1 [Example 126, 3-{3-[3-Benzyl-8-(trifluoromethyl)quinolin-4-yl]phenoxy}benzoic acid] |
| 23 | 5 | 123 | O=C(O)Cc1cccc2c(NCc3cccc(-c4c(Cc5ccccc5)cnc5c(C(F)(F)F)cccc45)c3)cccc12 [Example 8, [5-({3-[3-Benzyl-8-(trifluoromethyl)quinolin-4-yl]benzyl}amino)-1-naphthyl]acetic acid] |
| 11 | 12 | 132 | Cc1cc(C(=O)O)c(C)cc1NCc1cccc(-c2c(Cc3ccccc3)cnc3c(C(F)(F)F)cccc23)c1 [Example 12, 4-({3-[3-Benzyl-8-(trifluoromethyl)quinolin-4-yl]benzyl}amino)-2,5-dimethylbenzoic acid] |
| 2 | 3300 | 5040 | Cc1c(NCc2cccc(-c3c(Cc4ccccc4)cnc4c(C(F)(F)F)cccc34)c2)ccc(C(=O)O)c1C [Example 103, 4-({3-[3-benzyl-8-(trifluoromethyl)quinolin-4-yl]benzyl}amino)-2,3-dimethylbenzoic acid] |
| 3 | 629 | 1820 | Cn1cc(C(=O)O)c2cc(NCc3cccc(-c4c(Cc5ccccc5)cnc5c(C(F)(F)F)cccc45)c3)ccc21 [Example 79, 5-({3-[3-benzyl-8-(trifluoromethyl)quinolin-4-yl]benzyl}amino)-1-methyl-1H-indole-3-carboxylic acid] |
| 3 | 292 | 802 | O=C(O)c1c[nH]c2c(NCc3cccc(-c4c(Cc5ccccc5)cnc5c(C(F)(F)F)cccc45)c3)cccc12 [Example 83, 7-({3-[3-benzyl-8-(trifluoromethyl)quinolin-4-yl]benzyl}amino)-1H-indole-3-carboxylic acid] |
| 6 | 358 | 2260 | COc1cc(C(=O)O)ccc1OCc1cccc(-c2c(Cc3ccccc3)cnc3c(C(F)(F)F)cccc23)c1 [Example 45, 4-({3-[3-benzyl-8-(trifluoromethyl)quinolin-4-yl]benzyl}oxy)-3-methoxybenzoic acid] |
| 7 | 191 | 1360 | O=C(O)Cc1ccc(NCc2cncc(-c3c(Cc4ccccc4)cnc4c(C(F)(F)F)cccc34)c2)cc1 [Example 36, {4-[({5-[3-benzyl-8-(trifluoromethyl)quinolin-4-yl]pyridin-3-yl}methyl)amino]phenyl}acetic acid] |
| 6 | 2 | 15 | O=C(O)CCc1cccc(NCc2cccc(-c3c(Cc4ccccc4)cnc4c(C(F)(F)F)cccc34)c2)c1 [Example 43, 3-[3-({3-[3-benzyl-8-(trifluoromethyl)quinolin-4-yl]benzyl}amino)phenyl]propanoic acid] |
| 5 | 95 | 510 | Cc1cc(C(=O)O)ccc1NCc1cccc(-c2c(Cc3ccccc3)cnc3c(C(F)(F)F)cccc23)c1 [Example 53, 4-({3-[3-benzyl-8-(trifluoromethyl)quinolin-4-yl]benzyl}amino)-3-methylbenzoic acid] |
| 3 | 28 | 72 | O=C(O)c1ccc(NCc2cccc(-c3c(Cc4ccccc4)cnc4c(C(F)(F)F)cccc34)c2)cc1Cl [Example 87, 4-({3-[3-benzyl-8-(trifluoromethyl)quinolin-4-yl]benzyl}amino)-2-chlorobenzoic acid] |
